Read-outs that look alike come from different tables or passages of the source.
What was measured:
[1] = Aqueous solubility: concentration of saturated solution by HPLC; type: physicochemical; details: for solubility thermodynamic: thermodynamic from solid
Method: Aqueous solubility was measured using the following protocol. Supersaturated solution of meta-topolin mesylate salt was prepared. The solutions were filtered off from visible undissolved particles of the salt to obtain homogenic saturated solution. Saturated solution was diluted 1:10 000 and measured using HPLC Alliance Waters 2690 with C18 Symmetry column with the diameter 2.1 mm and 150 mm length with a porosity of 5 μm. The sample was dissolved in the mobile phase (MeOH: HCOONH4-1:9). The sample was washed with a methanol gradient (10-90%, 35 min) at pH 4 and a flow rate of 0.3 ml/min. The absorbances of the components were detected in the UV region at 210-400 nm. The peak area of meta-topolin mesylate salt was 595 027. The standard was measured as shown in the Table 9 below, Obtained peak area was compared to area peaks measured at certain concentration and the final concentration of saturated solution was determined
Solubility of other cytokinin (CK) mesylates was also determined by this method and the concentrations of saturated solutions are given below in Table 10: […]

[2] = tested on: K562 (chronic myeloid leukemia); experiment: In vitro cytotoxicity, Calcein AM assay, K-562; type: cell-based; details: 3-day Calcein-AM assay
How it was run: (§1)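 Cytotoxicity is scored as loss of Calcein AM metabolism: viable cells hydrolyse the dye to fluorescent calcein. Compounds act for 72 h on cells seeded 12 h earlier in serum-supplemented medium, and the dye (1 μg/ml final) is loaded for the last hour.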

[3] = tested on: HL-60 (promyelocytic, leukemia); experiment: In vitro cytotoxicity, Calcein AM assay, HL60; type: cell-based; details: Homo sapiens, HL-60, 72 h, 3-day Calcein-AM assay
How it was run: as §1

[4] = tested on: winter wheat leaf segments; experiment: Senescence bioassay: retention of chlorophyll in excised winter wheat leaf tips; type: in vivo, Triticum aestivum cv. Hereward; details: chlorophyll retention at concentration with highest activity; 10^−4 M BAP = 100%
Method: Seeds of winter wheat, Triticum aestivum cv. Hereward, were washed under running water for 24 hours and then sown on vermiculite soaked with Knop's solution. They were placed in a growth chamber at 25° C. with a 16/8 h light/dark period at 50 μmol·m^−2·s^−1. After 7 days, the first leaf was fully developed and the second leaf had started to grow. A tip section of the first leaf, approximately 35 mm long, was removed from 5 seedlings and trimmed slightly to a combined weight of 100 mg. The basal ends of the five leaf tips were placed in the wells of a microtiter polystyrene plate containing 150 μl of each tested compound solution. The entire plate was inserted into a plastic box lined with paper tissues soaked in distilled water to prevent leaf sections from drying out. After 96 h incubation in the dark at 25° C., the leaves were removed and chlorophyll extracted by heating at 80° C. for 10 min in 5 ml of 80% ethanol (v/v). The sample volume was then restored to 5 ml by the addition of 80% ethanol (v/v). The absorbance of the extract was recorded at 665 nm. In addition, chlorophyll extracts from fresh leaves and leaf tips incubated in deionised water were measured. […] Relative activity of the compound at this concentration was calculated (Tab. 3). The activity obtained for 10^−4 M 6-benzylaminopurine (BAP) was postulated as 100%. The values shown are means of five replicates and the whole experiment was repeated twice. The tested cytokinin bases were dissolved in dimethylsulfoxide (DMSO) and the solution brought up to 10^−3 M with distilled water. Cytokinin mesylate salts which are more water-soluble (BAP mesylate, meta-topolin mesylate and kinetin mesylate) could be directly dissolved to form a 10^−3 M solution in distilled water.

[5] = tested on: cytokinin-dependent tobacco callus; experiment: Tobacco callus biotest (stimulation of plant cell division); type: cell-based, Nicotiana tabacum L. cv. Wisconsin 38; details: callus growth at concentration with highest activity; 10^−5 M BAP = 100%
[6] = saturated solution in water, free cytokinin base, read-out: c of free CK base
[7] = saturated solution in water, cytokinin mesylate, read-out: c of CK mesylate

| SMILES | solubility thermodynamic [1, 6] [µM] | IC50 ([2]; Homo sapiens, K562, 72 h) [µM] | IC50 [3] [µM] | activity (%) [10^−4 mol · l^−1 BAP = 100%] [4] [%] | activity (%) [10^−5 mol · l^−1 BAP = 100%] [5] [%] | solubility thermodynamic [1, 7] [µM] | IC50 ([2]; mesylate) [µM] | solubility thermodynamic ([1]; water) [µM] | c of CK mesylate ([1]; saturated solution in water, cytokinin mesylate) | concentration of saturated solution ([1]; water) | solubility thermodynamic ([1]; water, read-out: concentration of saturated solution) [µg/mL] |
| --- | --- | --- | --- | --- | --- | --- | --- | --- | --- | --- | --- |
| CS(=O)(=O)O.c1ccc(CNc2ncnc3nc[nH]c23)cc1 [BAP mesylate, 6-benzylaminopurine mesylate] |  |  |  | 108 | 104 | 354000 | > 167 |  |  |  |  |
| c1ccc(CNc2ncnc3nc[nH]c23)cc1 [BAP, 6-benzylaminopurine] |  | 139 | > 167 | 100 | 100 |  |  | 370 |  |  |  |
| CS(=O)(=O)O.Oc1cccc(CNc2ncnc3nc[nH]c23)c1 [mT mesylate, 6-(3-hydroxybenzylamino)purine mesylate] |  |  |  | 109 | 111 | 24000 | 142 |  | 24,011 mM | approximately 24010,81 μM | 8000 |
| Oc1ccccc1CNc1ncnc2nc[nH]c12 [ortho-topolin (oT), 6-(2-hydroxybenzylamino)purine] | 30 | > 167 | 78 | 67 | 86 |  |  |  |  |  |  |

Further lines, with some results ahead:

| solubility thermodynamic [1, 6] [µM] | SMILES | IC50 ([2]; Homo sapiens, K562, 72 h) [µM] | IC50 [3] [µM] | activity (%) [10^−4 mol · l^−1 BAP = 100%] [4] [%] | activity (%) [10^−5 mol · l^−1 BAP = 100%] [5] [%] | solubility thermodynamic [1, 7] [µM] | IC50 ([2]; mesylate) [µM] | solubility thermodynamic ([1]; water) [µM] | c of CK mesylate ([1]; saturated solution in water, cytokinin mesylate) | concentration of saturated solution ([1]; water) | solubility thermodynamic ([1]; water, read-out: concentration of saturated solution) [µg/mL] |
| --- | --- | --- | --- | --- | --- | --- | --- | --- | --- | --- | --- |
| 210 | COc1cccc(CNc2ncnc3nc[nH]c23)c1 [3MeOBAP, 6-(3-methoxybenzylamino)purine] | > 167 | > 167 | 101 | 76 |  |  |  |  |  |  |
| 60 | Oc1cccc(CNc2ncnc3nc[nH]c23)c1 [meta-topolin (mT), 6-(3-hydroxybenzylamino)purine] | 128 | 79.2 | 117 | 105 |  |  |  |  | 60 µg/mL |  |

From patent US12570657B2, “Mesylate salts of heterocyclic cytokinins, compositions containing these derivatives and use thereof” (UNIVERZITA PALACKEHO V OLOMOUCI, priority 2020, dated 2026)
